{
  "source": "patent US4313946A",
  "about": "“Chemotherapeutically active maytansinoids from Trewia nudiflora” (priority 1981, dated 1982)",
  "key": {"[1]": {"test_system": "lymphocytic leukemia P388", "conditions": "Wani et al. 1973; cited from earlier work"}, "[2]": {"test_system": "lymphocytic leukemia P388", "experiment": "PS system against lymphocytic leukemia P388 in mice (NCI Protocol 1.200)", "format": "in vivo", "conditions": "i.p. once a day for 9 days", "description": "Another indication of fraction activity is the effectiveness in the PS system against lymphocytic leukemia P388 in mice. These assays are conducted according to the NCI Protocol 1.200 described in Geran et al., supra. Starting 24 hours after the tumor implantation, previously determined doses of each compound were injected intraperitoneally once a day for 9 days. Survival time of treated leukemic mice is compared to that of untreated mice (T/C×100). A T/C value of 100% indicates no activity. A T/C value greater than 100% means that the treated mice are surviving longer than the control mice. A compound giving a T/C value greater than 125% is indicative of activity as defined by the NCI Protocols, above."}, "[3]": {"test_system": "cultivated cells of human epidermoid carcinoma of the mouth (KB)", "experiment": "KB Cell Culture Screen (NCI Protocol 1.600)", "format": "cell-based", "conditions": "for IC50: Homo sapiens, KB, 72 h, 3 days after drug addition, activity indicated for ED50 ≤30 μg./ml., read-out: ED50 (dose that inhibits growth to 50% of control growth)", "description": "The KB Cell Culture Screen used in guiding the above-described fractionations was conducted in accordance with the National Cancer Institute (NCI) Protocol 1.600 [Geran et al., Cancer Chemother. Rep., Part 3, 3:17 (1972)] in which the effectiveness of the test compounds against cultivated cells of human epidermoid carcinoma of the mouth was evaluated. The results of this procedure are expressed as the dose that inhibits growth to 50% of control growth by 3 days after drug addition. Such a dose is referred to as ED50 and activity is indicated for ED50 levels of ≤30 μg./ml. The smaller the ED50 level, the more cytotoxic the test material. The activities of the crystallized compounds isolated above are reported below in Table III."}, "[4]": {"test_system": "B16 melancarcinoma", "experiment": "B1 system against B16 melancarcinoma in mice (NCI Protocol 1.300)", "format": "in vivo", "conditions": "i.p. once a day for 9 days, vehicle Klucel, male B6C3F1 mice", "description": "Trewiasine was also evaluated in the B1 system against B16 melancarcinoma in mice. This assay is conducted in accordance with the NCI Protocol 1.300 described in Geran et al., supra. Starting 24 hours after the tumor implantation, predetermined doses of the compound were injected intraperitoneally once a day for 9 days. The results are reported in Table V below as the percent T/C."}},
  "note": "Entries after “also recorded” stand apart in the source; their conditions may differ.",
  "data": [
    {"compound": "COc1cc2cc(c1Cl)N(C)C(=O)CC(OC(=O)C(C)N(C)C(=O)C(C)C)C1(C)OC1C(C)C1CC(O)(NC(=O)O1)C(OC)C=CC=C(C)C2O", "note": "(stereo not drawn) [colubrinol]", "values": [
      {"measurement": "activity against lymphocytic leukemia P388", "setting": "[1]", "value": "activity against lymphocytic leukemia P388 at the microgram per kilogram level"}
    ]},
    {"compound": "C=C(C)C(=O)N(C)C(C)C(=O)OC1CC(=O)N(C)c2cc(cc(OC)c2Cl)C(OC)C(C)=CC=CC(OC)C2(O)CC(OC(=O)N2)C(C)C2OC12C", "note": "(stereo not drawn) [dehydrotrewiasine]", "values": [
      {"measurement": "T/C", "setting": "[2]; 4.00 μg./kg./inj., vehicle biological saline, male CDF1 mice", "value": 120, "unit": "%"},
      {"measurement": "T/C", "setting": "[2]; 8.00 μg./kg./inj., vehicle biological saline, male CDF1 mice", "value": 127, "unit": "%"},
      {"measurement": "T/C", "setting": "[2]; 16.00 μg./kg./inj., vehicle biological saline, male CDF1 mice", "value": 120, "unit": "%"},
      {"measurement": "T/C", "setting": "[2]; 32.00 μg./kg./inj., vehicle biological saline, male CDF1 mice", "value": 145, "unit": "%"},
      {"measurement": "IC50", "setting": "[3]", "value": "< 10", "unit": "ng/mL"}
    ]},
    {"compound": "COc1cc2cc(c1Cl)N(C)C(=O)CC(OC(=O)C(C)N(C)C(=O)C(C)C)C1(C)OC1C(C)C1CC(O)(NC(=O)O1)C(OC)C=CC=C(C)C2OC", "note": "(stereo not drawn) [trewiasine, 15-methoxymaytanbutine]", "values": [
      {"measurement": "T/C", "setting": "[4]; 1.00 μg./kg./inj.", "value": 133, "unit": "%"},
      {"measurement": "T/C", "setting": "[4]; 2.00 μg./kg./inj.", "value": 140, "unit": "%"},
      {"measurement": "T/C", "setting": "[4]; 4.00 μg./kg./inj.", "value": 157, "unit": "%"},
      {"measurement": "T/C", "setting": "[4]; 8.00 μg./kg./inj.", "value": 185, "unit": "%"},
      {"measurement": "T/C", "setting": "[4]; 16.00 μg./kg./inj.", "value": 172, "unit": "%"},
      {"measurement": "T/C", "setting": "[4]; 32.00 μg./kg./inj.", "value": 183, "unit": "%"},
      {"measurement": "T/C", "setting": "[2]; 4.00 μg./kg./inj., vehicle Klucel, female CDF1 mice", "value": 163, "unit": "%"},
      {"measurement": "T/C", "setting": "[2]; 8.00 μg./kg./inj., vehicle Klucel, female CDF1 mice", "value": 140, "unit": "%"},
      {"measurement": "T/C", "setting": "[2]; 16.00 μg./kg./inj., vehicle Klucel, female CDF1 mice", "value": 154, "unit": "%"},
      {"measurement": "T/C", "setting": "[2]; 32.00 μg./kg./inj., vehicle Klucel, female CDF1 mice", "value": 128, "unit": "%"},
      {"measurement": "T/C", "setting": "[2]; 64.00 μg./kg./inj., vehicle Klucel, female CDF1 mice", "value": 91, "unit": "%"},
      {"measurement": "IC50", "setting": "[3]", "value": 0.2, "unit": "ng/mL"},
      {"measurement": "cytotoxicity relative to that reported by Kupchan for other maytansinoids", "setting": "[3]; KB system, compared with maytansine, maytanbutine and similar compounds", "value": "one or more orders of magnitude less; also recorded: at least one order of magnitude less"}
    ]},
    {"compound": "COc1cc2cc(c1Cl)N(C)C(=O)CC(OC(=O)C(C)N(C)C(=O)C(C)C)C1(C)OC1C(C)C1CC(O)(NC(=O)O1)C(OC)C=CC=C(C)C2OC(C)=O", "note": "(stereo not drawn) [colubrinol acetate]", "values": [
      {"measurement": "activity against lymphocytic leukemia P388", "setting": "[1]", "value": "activity against lymphocytic leukemia P388 at the microgram per kilogram level"}
    ]},
    {"compound": "COc1cc2cc(c1Cl)N(C)C(=O)CC(OC(=O)C(C)NC(=O)C(C)C)C1(C)OC1C(C)C1CC(O)(NC(=O)O1)C(OC)C=CC=C(C)C2OC", "note": "(stereo not drawn) [demethyltrewiasine]", "values": [
      {"measurement": "IC50", "setting": "[3]", "value": "< 10", "unit": "ng/mL"}
    ]}
  ]
}
